# Laboratory results taken from the NIST ThermoML archive (doi:10.1021/acs.jced.5b01039).
# “And” between values parts separate entries of the source, which are not always exact repeats. Identical values can stand only once. ± gives the expanded uncertainty stated by the source.
# Settings: Liquid; for vapor or sublimation pressure: Closed cell (Static) method; for mass density: Pycnometric method
smiles,measurement,setting,value
"F/C=C\C(F)(F)F [(Z)-1,3,3,3-tetrafluoro-1-propene]",vapor or sublimation pressure,300 K,185.9 ± 0.8 kPa and 186.4 ± 0.8 kPa
same,mass density,300 K,1218.6 ± 1 kg/m3 and 1219.2 ± 1 kg/m3
same,vapor or sublimation pressure,310 K,260.4 ± 0.9 kPa and 260.6 ± 0.9 kPa
same,mass density,310 K,1191.2 ± 1 kg/m3
same,vapor or sublimation pressure,320 K,355.3 ± 1 kPa and 355.1 ± 1 kPa
same,mass density,320 K,1162 ± 1 kg/m3 and 1163.5 ± 1 kg/m3
same,vapor or sublimation pressure,330 K,473.3 ± 1.2 kPa and 473.5 ± 1.2 kPa
same,mass density,330 K,1132.5 ± 1 kg/m3 and 1131.5 ± 1 kg/m3
same,vapor or sublimation pressure,340 K,619 ± 1.4 kPa and 619.2 ± 1.4 kPa
same,mass density,340 K,1100.2 ± 1 kg/m3 and 1101.7 ± 1 kg/m3
same,vapor or sublimation pressure,350 K,795.2 ± 1.7 kPa and 794.7 ± 1.7 kPa
same,mass density,350 K,1066.1 ± 1 kg/m3 and 1067.3 ± 1 kg/m3
same,vapor or sublimation pressure,360 K,1007.3 ± 2 kPa
same,mass density,360 K,1032.6 ± 1 kg/m3 and 1032.3 ± 1 kg/m3
same,vapor or sublimation pressure,370 K,1258.9 ± 2.5 kPa and 1258.7 ± 2.5 kPa
same,mass density,370 K,993 ± 1 kg/m3 and 993.3 ± 1 kg/m3
same,vapor or sublimation pressure,380 K,1554.1 ± 3 kPa and 1556.9 ± 3 kPa
same,mass density,380 K,951.5 ± 1 kg/m3 and 949.7 ± 1 kg/m3
same,vapor or sublimation pressure,390 K,1903.6 ± 3.6 kPa and 1903.7 ± 3.6 kPa
same,mass density,390 K,900.5 ± 1.1 kg/m3 and 901.4 ± 1.1 kg/m3
same,vapor or sublimation pressure,400 K,2308.3 ± 4.2 kPa and 2308.8 ± 4.2 kPa
same,mass density,400 K,843.9 ± 1.1 kg/m3 and 843.6 ± 1.1 kg/m3
"F/C=C/C(F)(F)F [trans-1,3,3,3-tetrafluoropropene]",vapor or sublimation pressure,300 K,526.8 ± 1.4 kPa and 526.6 ± 1.4 kPa
same,mass density,300 K,1157.7 ± 1 kg/m3 and 1158 ± 1 kg/m3
same,vapor or sublimation pressure,310 K,703.2 ± 1.6 kPa and 702.4 ± 1.6 kPa
same,mass density,310 K,1122.8 ± 1 kg/m3
same,vapor or sublimation pressure,320 K,919.6 ± 2 kPa and 919 ± 2 kPa
same,mass density,320 K,1085.1 ± 1 kg/m3
same,vapor or sublimation pressure,330 K,1182.6 ± 2.5 kPa and 1182.3 ± 2.5 kPa
same,mass density,330 K,1045.3 ± 1 kg/m3 and 1044.7 ± 1 kg/m3
same,vapor or sublimation pressure,340 K,1498.4 ± 3 kPa and 1498.6 ± 3 kPa
same,mass density,340 K,1000.9 ± 1 kg/m3 and 1001.5 ± 1 kg/m3
same,vapor or sublimation pressure,350 K,1874 ± 3.7 kPa and 1874.1 ± 3.7 kPa
same,mass density,350 K,950.3 ± 1.1 kg/m3 and 950.6 ± 1.1 kg/m3
same,vapor or sublimation pressure,360 K,2318 ± 4.5 kPa and 2319.2 ± 4.5 kPa
same,mass density,360 K,889.8 ± 1.1 kg/m3
same,vapor or sublimation pressure,370 K,2841.4 ± 5.5 kPa and 2842.7 ± 5.5 kPa
same,mass density,370 K,810.1 ± 1.3 kg/m3
same,vapor or sublimation pressure,380 K,3460 ± 6.4 kPa and 3461.5 ± 6.4 kPa
same,mass density,380 K,668.8 ± 1.5 kg/m3 and 670.4 ± 1.5 kg/m3
